Experimental data: publication PMC9005681, “Use of AD Informer Set compounds to explore validity of novel targets in Alzheimer's disease pathology” (Alzheimer's & Dementia : Translational Research & Clinical …, 2022)
Values joined by “and” are separate entries in the source; they are usually repeats but may differ in a detail not shown here. Equal values may be shown once. Blank lines part the entries; values can stand above or below the molecule they belong to.

Legend:
Assay in all cases: PDSP GPCR panel primary binding assays at 10 μM
[1] = molecular target: T1, cloned human or rodent CNS receptors, channels, and transporters (PDSP panel) (Homo sapiens, UniProt P41145); settings: KOR, primary assay; for Mean %: mean inhibition; for Inhibition 1: replicate 1; for Inhibition 2: replicate 2; for Inhibition 3: replicate 3; for Inhibition 4: replicate 4
T1 construct: expressed in transfected cells
T1 sequence (P41145 whole entry): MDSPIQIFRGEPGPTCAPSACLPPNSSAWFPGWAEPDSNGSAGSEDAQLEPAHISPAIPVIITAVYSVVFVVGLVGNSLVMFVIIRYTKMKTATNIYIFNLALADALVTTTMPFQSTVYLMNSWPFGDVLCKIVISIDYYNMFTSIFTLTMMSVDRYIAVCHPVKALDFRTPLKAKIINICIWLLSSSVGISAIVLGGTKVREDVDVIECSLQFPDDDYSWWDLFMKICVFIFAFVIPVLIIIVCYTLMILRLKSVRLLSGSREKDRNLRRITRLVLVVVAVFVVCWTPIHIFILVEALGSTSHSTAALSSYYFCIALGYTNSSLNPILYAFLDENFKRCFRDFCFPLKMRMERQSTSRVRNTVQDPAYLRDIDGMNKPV
How it was run: (§1)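 Competition binding with radiolabeled standard ligands, single 10 μM concentration, four replicates. Targets showing over 50% displacement were followed up with 11-point titrations in triplicate.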

[2] = tested on: cloned human or rodent CNS receptors, channels, and transporters (PDSP panel); settings: primary assay; for Mean %: mean inhibition; for Inhibition 1: replicate 1; for Inhibition 2: replicate 2; for Inhibition 3: replicate 3; for Inhibition 4: replicate 4
How it was run: as §1

[3] = molecular target: T2, cloned human or rodent CNS receptors, channels, and transporters (PDSP panel) (Homo sapiens, UniProt P28222); settings: 5-HT1B, primary assay; for Mean %: mean inhibition; for Inhibition 1: replicate 1; for Inhibition 2: replicate 2; for Inhibition 3: replicate 3; for Inhibition 4: replicate 4
T2 construct: expressed in transfected cells
T2 sequence (P28222 whole entry): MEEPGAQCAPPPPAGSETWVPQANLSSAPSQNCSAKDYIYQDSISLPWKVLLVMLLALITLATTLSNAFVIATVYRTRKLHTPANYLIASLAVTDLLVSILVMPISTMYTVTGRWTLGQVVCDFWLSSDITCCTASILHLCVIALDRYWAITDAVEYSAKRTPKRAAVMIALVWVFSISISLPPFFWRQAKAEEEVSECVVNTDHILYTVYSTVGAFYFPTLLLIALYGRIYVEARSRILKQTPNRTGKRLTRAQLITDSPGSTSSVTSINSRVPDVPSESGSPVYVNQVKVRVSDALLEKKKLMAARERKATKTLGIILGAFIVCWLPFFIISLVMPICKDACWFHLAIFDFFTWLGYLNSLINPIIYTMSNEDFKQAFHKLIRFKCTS
How it was run: as §1

[4] = molecular target: T3, cloned human or rodent CNS receptors, channels, and transporters (PDSP panel) (Homo sapiens, UniProt P08908); settings: 5-HT1A, primary assay; for Mean %: mean inhibition; for Inhibition 1: replicate 1; for Inhibition 2: replicate 2; for Inhibition 3: replicate 3; for Inhibition 4: replicate 4
T3 construct: expressed in transfected cells
T3 sequence (P08908 1-422): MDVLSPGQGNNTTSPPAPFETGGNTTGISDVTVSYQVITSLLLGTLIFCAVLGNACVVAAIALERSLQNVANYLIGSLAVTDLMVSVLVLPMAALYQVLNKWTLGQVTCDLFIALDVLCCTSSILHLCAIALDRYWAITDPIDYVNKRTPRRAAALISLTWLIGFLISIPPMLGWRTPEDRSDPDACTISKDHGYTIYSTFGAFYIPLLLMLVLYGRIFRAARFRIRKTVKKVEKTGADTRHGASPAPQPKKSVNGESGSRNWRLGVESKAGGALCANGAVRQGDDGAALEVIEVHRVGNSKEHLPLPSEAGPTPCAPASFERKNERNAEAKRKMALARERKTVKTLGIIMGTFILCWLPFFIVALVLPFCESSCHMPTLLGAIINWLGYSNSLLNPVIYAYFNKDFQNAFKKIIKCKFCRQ
How it was run: as §1

[5] = molecular target: T4, cloned human or rodent CNS receptors, channels, and transporters (PDSP panel) (Homo sapiens, UniProt P08912); settings: M5, primary assay; for Mean %: mean inhibition; for Inhibition 1: replicate 1; for Inhibition 2: replicate 2; for Inhibition 3: replicate 3; for Inhibition 4: replicate 4
T4 construct: expressed in transfected cells
T4 sequence (P08912 1-532): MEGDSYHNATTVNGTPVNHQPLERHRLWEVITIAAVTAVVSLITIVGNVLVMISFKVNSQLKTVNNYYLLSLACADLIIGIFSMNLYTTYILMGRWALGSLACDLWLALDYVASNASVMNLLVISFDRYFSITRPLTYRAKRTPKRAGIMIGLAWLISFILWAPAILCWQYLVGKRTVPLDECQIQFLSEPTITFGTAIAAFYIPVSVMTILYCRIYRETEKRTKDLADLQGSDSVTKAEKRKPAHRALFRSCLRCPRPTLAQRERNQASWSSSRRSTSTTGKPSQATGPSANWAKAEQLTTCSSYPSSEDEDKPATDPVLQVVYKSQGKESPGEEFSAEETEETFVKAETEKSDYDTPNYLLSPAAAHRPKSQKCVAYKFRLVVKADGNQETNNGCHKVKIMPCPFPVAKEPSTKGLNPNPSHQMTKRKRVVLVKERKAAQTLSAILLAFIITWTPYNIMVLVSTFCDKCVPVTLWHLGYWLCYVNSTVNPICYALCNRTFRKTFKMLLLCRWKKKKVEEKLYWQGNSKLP
How it was run: as §1

[6] = molecular target: T5, cloned human or rodent CNS receptors, channels, and transporters (PDSP panel) (Homo sapiens, UniProt P28221); settings: 5-HT1D, primary assay; for Mean %: mean inhibition; for Inhibition 1: replicate 1; for Inhibition 2: replicate 2; for Inhibition 3: replicate 3; for Inhibition 4: replicate 4
T5 construct: expressed in transfected cells
T5 sequence (P28221 whole entry): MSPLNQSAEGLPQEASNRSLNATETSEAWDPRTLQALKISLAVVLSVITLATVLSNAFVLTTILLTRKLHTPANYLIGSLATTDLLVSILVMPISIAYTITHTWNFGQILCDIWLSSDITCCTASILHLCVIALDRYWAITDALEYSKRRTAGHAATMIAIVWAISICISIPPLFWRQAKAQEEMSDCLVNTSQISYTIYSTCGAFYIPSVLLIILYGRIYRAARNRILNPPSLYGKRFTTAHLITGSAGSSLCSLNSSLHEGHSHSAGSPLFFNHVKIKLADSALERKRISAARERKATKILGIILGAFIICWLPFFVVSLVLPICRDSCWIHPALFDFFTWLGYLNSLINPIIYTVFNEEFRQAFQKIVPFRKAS
How it was run: as §1

[7] = molecular target: T6, cloned human or rodent CNS receptors, channels, and transporters (PDSP panel) (Homo sapiens, UniProt P35367); settings: H1, primary assay; for Mean %: mean inhibition; for Inhibition 1: replicate 1; for Inhibition 2: replicate 2; for Inhibition 3: replicate 3; for Inhibition 4: replicate 4
T6 construct: expressed in transfected cells
T6 sequence (P35367 whole entry): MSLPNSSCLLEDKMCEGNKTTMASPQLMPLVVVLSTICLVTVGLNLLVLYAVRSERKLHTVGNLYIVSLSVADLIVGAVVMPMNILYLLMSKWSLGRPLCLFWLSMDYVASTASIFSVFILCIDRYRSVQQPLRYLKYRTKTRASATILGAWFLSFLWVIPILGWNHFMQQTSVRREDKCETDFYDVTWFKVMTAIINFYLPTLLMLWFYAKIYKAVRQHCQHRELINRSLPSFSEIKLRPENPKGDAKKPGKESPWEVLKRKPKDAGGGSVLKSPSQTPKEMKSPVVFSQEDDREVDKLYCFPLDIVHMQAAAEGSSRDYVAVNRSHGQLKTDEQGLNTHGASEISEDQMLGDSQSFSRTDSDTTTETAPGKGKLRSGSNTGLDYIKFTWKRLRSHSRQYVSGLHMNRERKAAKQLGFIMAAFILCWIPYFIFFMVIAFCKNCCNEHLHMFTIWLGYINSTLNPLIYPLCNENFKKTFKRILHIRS
How it was run: as §1

Molecule: MDL 28170 [UNC10302675A]
Mean % [1]: 8.82%
Inhibition 1 [1]: 3.47%
Inhibition 2 [1]: 2.13%
Inhibition 3 [1]: 10.86%
Inhibition 4 [1]: 18.81%
Mean % ([2]; Alpha1A): 5.14%
Inhibition 1 ([2]; Alpha1A): 14.68%
Inhibition 2 ([2]; Alpha1A): -1.03%
Inhibition 3 ([2]; Alpha1A): -8.14%
Inhibition 4 ([2]; Alpha1A): 15.06%
Mean % ([2]; Alpha2A): -0.83%
Inhibition 1 ([2]; Alpha2A): 3.33%
Inhibition 2 ([2]; Alpha2A): -2.81%
Inhibition 3 ([2]; Alpha2A): -6.74%
Inhibition 4 ([2]; Alpha2A): 2.9%
Mean % ([2]; Alpha2C): -3.61%
Inhibition 1 ([2]; Alpha2C): -3.7%
Inhibition 2 ([2]; Alpha2C): -0.8%
Inhibition 3 ([2]; Alpha2C): -1.62%
Inhibition 4 ([2]; Alpha2C): -8.31%
Mean % ([2]; BZP Rat Brain Site): 7.23%
Inhibition 1 ([2]; BZP Rat Brain Site): 18.74%
Inhibition 2 ([2]; BZP Rat Brain Site): 4.91%
Inhibition 3 ([2]; BZP Rat Brain Site): -1.16%
Inhibition 4 ([2]; BZP Rat Brain Site): 6.42%
Mean % ([2]; DOR): -10.37%
Inhibition 1 ([2]; DOR): -5.94%
Inhibition 2 ([2]; DOR): -12.45%
Inhibition 3 ([2]; DOR): -15.16%
Inhibition 4 ([2]; DOR): -7.93%
Inhibition 1 ([2]; GABAA): 16.54% and -28.18%
Inhibition 2 ([2]; GABAA): 2.5% and -11.42%
Inhibition 3 ([2]; GABAA): 1.02% and 0%
Inhibition 4 ([2]; GABAA): 29.11% and -5.47%
Mean % ([2]; H3): 9.84%
Inhibition 1 ([2]; H3): 9.54%
Inhibition 2 ([2]; H3): 0.8%
Inhibition 3 ([2]; H3): 7.8%
Inhibition 4 ([2]; H3): 21.2%
Mean % ([2]; H4): -7.26%
Inhibition 1 ([2]; H4): -26.58%
Inhibition 2 ([2]; H4): 0.78%
Inhibition 3 ([2]; H4): -5.94%
Inhibition 4 ([2]; H4): 2.7%
Mean % ([2]; Sigma 1): 5.78%
Mean % ([2]; Sigma 2): 26.55%
Mean % [3]: 7.62%
Inhibition 1 [3]: 14.84%
Inhibition 2 [3]: 5.24%
Inhibition 3 [3]: 9.43%
Inhibition 4 [3]: 0.96%
Mean % [4]: 2.42%
Inhibition 1 [4]: 14.05%
Inhibition 2 [4]: 0.78%
Inhibition 3 [4]: -1.81%
Inhibition 4 [4]: -3.36%
Mean % [5]: -3.08%
Inhibition 1 [5]: 7.51%
Inhibition 2 [5]: -10.6%
Inhibition 3 [5]: 0.26%
Inhibition 4 [5]: -9.5%
Mean % [6]: 5%
Inhibition 1 [6]: 13.22%
Inhibition 2 [6]: 2.39%
Inhibition 3 [6]: 4.89%
Inhibition 4 [6]: -0.52%
Mean % [7]: 62.36%
Inhibition 1 [7]: 85.46%
Inhibition 2 [7]: 73.14%
Inhibition 3 [7]: 49.84%
Inhibition 4 [7]: 41%

Mean % [1]: -10.86%
Inhibition 1 [1]: -18.36%
Inhibition 2 [1]: -17.69%
Inhibition 3 [1]: 0.34%
Inhibition 4 [1]: -7.72%
Mean % ([2]; Alpha1A): -0.8%
Inhibition 1 ([2]; Alpha1A): -1.03%
Inhibition 2 ([2]; Alpha1A): -7.95%
Inhibition 3 ([2]; Alpha1A): -14.5%
Inhibition 4 ([2]; Alpha1A): 20.29%
Mean % ([2]; Alpha2A): -5.79%
Inhibition 1 ([2]; Alpha2A): -3.6%
Inhibition 2 ([2]; Alpha2A): -9.38%
Inhibition 3 ([2]; Alpha2A): -7.24%
Inhibition 4 ([2]; Alpha2A): -2.95%
Mean % ([2]; Alpha2C): 1.02%
Inhibition 1 ([2]; Alpha2C): 11.32%
Inhibition 2 ([2]; Alpha2C): 1.35%
Inhibition 3 ([2]; Alpha2C): -11.52%
Inhibition 4 ([2]; Alpha2C): 2.93%
Mean % ([2]; BZP Rat Brain Site): 4.01%
Inhibition 1 ([2]; BZP Rat Brain Site): 13.82%
Inhibition 2 ([2]; BZP Rat Brain Site): 5.95%
Inhibition 3 ([2]; BZP Rat Brain Site): -2.77%
Inhibition 4 ([2]; BZP Rat Brain Site): -0.97%
Mean % ([2]; DOR): 1.65%
Inhibition 1 ([2]; DOR): 14.12%
Inhibition 2 ([2]; DOR): -1.97%
Inhibition 3 ([2]; DOR): -1.78%
Inhibition 4 ([2]; DOR): -3.77%
Mean % ([2]; GABAA): -6.38% and -12.1%
Inhibition 1 ([2]; GABAA): -3.42% and -8.72%
Inhibition 2 ([2]; GABAA): -12.29% and -15.74%
Inhibition 3 ([2]; GABAA): -18.95% and -24.39%
Inhibition 4 ([2]; GABAA): 9.15% and 0.47%
Mean % ([2]; H3): 13.41%
Inhibition 1 ([2]; H3): 10.42%
Inhibition 2 ([2]; H3): 5.17%
Inhibition 3 ([2]; H3): 19.16%
Inhibition 4 ([2]; H3): 18.87%
Mean % ([2]; H4): -11.7%
Inhibition 1 ([2]; H4): -16.74%
Inhibition 2 ([2]; H4): -15.78%
Inhibition 3 ([2]; H4): -13.62%
Inhibition 4 ([2]; H4): -0.66%
Mean % ([2]; Sigma 1): 4.17%
Mean % ([2]; Sigma 2): -5.66%
Mean % [3]: -2.56%
Inhibition 1 [3]: 6.88%
Inhibition 2 [3]: -14.35%
Inhibition 3 [3]: 0.2%
Inhibition 4 [3]: -2.95%
Mean % [4]: 4.14%
Inhibition 1 [4]: 11.98%
Inhibition 2 [4]: 4.74%
Inhibition 3 [4]: -9.57%
Inhibition 4 [4]: 9.39%
Mean % [5]: -6.81%
Inhibition 1 [5]: 1.27%
Inhibition 2 [5]: -10.6%
Inhibition 3 [5]: -10.81%
Inhibition 4 [5]: -7.08%
Mean % [6]: 6.14%
Inhibition 1 [6]: 26.13%
Inhibition 2 [6]: 1.56%
Inhibition 3 [6]: 1.56%
Inhibition 4 [6]: -4.69%
Mean % [7]: 71.69%
Inhibition 1 [7]: 93.05%
Inhibition 2 [7]: 75.46%
Inhibition 3 [7]: 68.14%
Inhibition 4 [7]: 50.11%
Molecule: CNc1nc(C)nc(N[C@H]2CCC[C@@H](C(=O)NCc3ccc(C#N)cc3C(F)(F)F)C2)n1 [UNC10302679A, GSK2256294A]
